Results published in patent US4210671A, “Abietamide derivatives, their production and use” (priority 1974, dated 1980).

Test system: cholesterol in blood
Experiment: Reduction of blood cholesterol in rats fed a cholesterol diet
Type: in vivo
Settings: male rats, 3 days, relative value: control group = 0, normal group = 100, * 5%, ** 1% significance over control; for % Inhibition (blood cholesterol), Dose in Diet 0.03%: 0.03% test compound in diet with 1% cholesterol and 0.25% sodium cholate; for % Inhibition (blood cholesterol), Dose in Diet 0.1%: 0.1% test compound in diet with 1% cholesterol and 0.25% sodium cholate
Experimental: A completely synthetic diet containing 1% of cholesterol, 0.25% of sodium cholate and 0.03% and 0.1% of the test compound is given to a group of 6 male rats having a body weight of about 50 g consecutively for 3 days, and the rats are fasted overnight. Then, the rats are decapitated, and their blood is collected to determine the cholesterol concentration in the collected blood. The concentration of cholesterol in blood is measured with Technicon Autoanalyzer (Technicon Laboratory: Method File N-24a).
Each value shown in the Table is a relative value determined based on the supposition that the value of the control group (the cholesterol-administered group) is 0 and the value of the normal group (the non-cholestero-administered group) is 100.

Row | Compound | % Inhibition (blood cholesterol), Dose in Diet 0.03% [%] | % Inhibition (blood cholesterol), Dose in Diet 0.1% [%]
1 | N-Methyl-N-phenyldihydroabietamide | -8 | 27
2 | N-α-Phenylethyldihydroabietamide | 71 | 99
3 | N-Benzyldihydroabietamide | 25 | 64
4 | CC(C)C1=CC2=CC[C@@H]3[C@](C)(CCC[C@@]3(C)C(=O)NC3CCCC3)[C@H]2CC1 [N-Cyclopentylabietamide] | 11 | 32
